Source: ChEMBL document CHEMBL6127159, “A Bifunctional Sulfide Donor Approach for Ischemic Stroke: Leveraging Butylphthalide as a Carrier for Sulfide Prodrug” (J Med Chem, 2024)
Activity calls are given as the source filed them. No cut-off for these calls is given here.

Tests used:
[1] = target: T1, Liver carboxylesterase (Sus scrofa, UniProt Q29550); test: Drug metabolism in PBS assessed as porcine liver esterase mediated compound hydrolysis by measuring half life at 500 uM by UPLC method; assay type: ADME; settings: pig
T1 sequence (Q29550 whole entry): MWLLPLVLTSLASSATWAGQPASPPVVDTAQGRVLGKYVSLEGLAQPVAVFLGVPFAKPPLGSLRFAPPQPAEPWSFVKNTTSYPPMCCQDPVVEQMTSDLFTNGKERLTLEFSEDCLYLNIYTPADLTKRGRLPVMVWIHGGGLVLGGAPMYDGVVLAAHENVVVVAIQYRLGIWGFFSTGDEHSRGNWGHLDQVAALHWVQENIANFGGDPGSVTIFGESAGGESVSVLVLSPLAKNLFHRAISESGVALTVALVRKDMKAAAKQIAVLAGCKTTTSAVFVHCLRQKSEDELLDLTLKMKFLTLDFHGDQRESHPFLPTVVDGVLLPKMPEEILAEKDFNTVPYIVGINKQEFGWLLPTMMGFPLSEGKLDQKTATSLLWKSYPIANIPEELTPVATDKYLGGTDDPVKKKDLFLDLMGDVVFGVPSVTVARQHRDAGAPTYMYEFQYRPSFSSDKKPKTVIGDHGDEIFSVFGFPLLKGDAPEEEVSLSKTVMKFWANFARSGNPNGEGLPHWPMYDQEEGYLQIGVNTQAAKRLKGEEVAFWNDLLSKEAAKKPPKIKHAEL

[2] = Drug metabolism in Sprague-Dawley rat assessed as 3-butylisobenzofuran-1(3H)-one level at 80 umol/kg, iv measured after 1 min by LC-MS/MS analysis; assay type: ADME, organism-based; settings: in vivo, dose 80 µmol/kg
[3] = Drug concentration in Sprague-Dawley rat at 80 umol/kg, iv measured after 1 min by LC-MS/MS analysis; assay type: ADME, organism-based; settings: in vivo
[4] = species: Mus musculus; test: Neuroprotective activity against MCAO induced C57BL/6J mouse cerebral ischemia model assessed as cleaved caspase-3 expression by immunofluorescence assay; assay type: functional, organism-based
[5] = species: Mus musculus; test: Neuroprotective activity against MCAO induced C57BL/6J mouse cerebral ischemia model assessed as reduction in nuclear leakage; assay type: functional, organism-based
[6] = species: Mus musculus; test: Neuroprotective activity against MCAO induced C57BL/6J mouse cerebral ischemia model assessed as NeuN expression by immunofluorescence assay; assay type: functional, organism-based
[7] = Cytotoxicity against […] PC12 cells upto 500 uM; assay type: toxicity, cell-based; settings: pc12, 500 µM
[8] = Downregulation of MDA level in MCAO induced C57BL/6J mouse at 100 umol/kg measured after 24 hrs (reference value: 15.1 +/- 0.5 nmol/mg); assay type: functional; settings: dose 100 µmol/kg
[9] = tested on: Mus musculus; test: Induction of iron-sulfur cluster related genes transcriptional level in MCAO induced C57BL/6J mouse at 100 umol/kg measured after 24 hrs by GSEA; assay type: functional, organism-based; settings: dose 100.0 µmol/kg
[10] = tested on: PC12; test: Neuroprotective activity against ischemia/hypoxia induced cell injury in […] PC12 cells assessed as increase in cell viability at 10 to 20 uM by MTT assay; assay type: functional, cell-based; settings: dose 10-20 µM
[11] = tested on: Mus musculus; test: Downregulation of abnormal ion channel activation related genes expression in MCAO induced C57BL/6J mouse at 100 umol/kg measured after 24 hrs by GSEA; assay type: functional; settings: dose 100.0 µmol/kg
[12] = tested on: Mus musculus; test: Induction of iron-sulfur cluster related genes transcriptional level in MCAO induced C57BL/6J mouse at 100 umol/kg measured after 24 hrs; assay type: functional, organism-based; settings: dose 100.0 µmol/kg
[13] = tested on: Mus musculus; test: Downregulation of oxidative stress related genes expression in MCAO induced C57BL/6J mouse at 100 umol/kg measured after 24 hrs by GSEA; assay type: functional, organism-based; settings: dose 100.0 µmol/kg
[14] = cells; assay type: functional, PC12; settings: Homo sapiens, PC-12
[15] = species: Mus musculus; test: Neuroprotective activity against MCAO induced C57BL/6J mouse cerebral ischemia model assessed as appearance of high density nissl bodies in thalamic region; assay type: functional, organism-based
[16] = species: Mus musculus; test: Neuroprotective activity against MCAO induced C57BL/6J mouse cerebral ischemia model assessed as upregulation of genes related to dopaminergic neuron differentiation by GSEA; assay type: functional, organism-based
[17] = tested on: Mus musculus; test: Neuroprotective activity against MCAO induced C57BL/6J mouse assessed as reduction in infarct area at 100 umol/kg measured after 24 hrs by TTC staining based analysis; assay type: functional; design: scale not given: the % may be the effect or the level left; settings: dose 100 µmol/kg
[18] = species: Mus musculus; test: Neuroprotective activity against MCAO induced C57BL/6J mouse cerebral ischemia model assessed as upregulation of genes related to neuroprotection by GSEA; assay type: functional, organism-based
[19] = target: T1, Liver carboxylesterase; test: Drug metabolism in PBS assessed as porcine liver esterase mediated H2S release at 500 uM by methylene blue assay; assay type: ADME; settings: pig, isolated protein
[20] = Drug metabolism in Sprague-Dawley rat plasma assessed as 2-(1-acetoxypentyl)benzoic acid level at 80 umol/kg, iv measured after 1 min by LC-MS/MS analysis; assay type: ADME, organism-based; settings: in vivo, dose 80 µmol/kg
[21] = Drug concentration in Sprague-Dawley rat plasma at 80 umol/kg, iv measured after 1 min by LC-MS/MS analysis; assay type: ADME, organism-based; settings: dose 80 µmol/kg
[22] = Drug metabolism in Sprague-Dawley rat plasma assessed as 3-butylisobenzofuran-1(3H)-thione level at 80 umol/kg, iv measured after 1 min by LC-MS/MS analysis; assay type: ADME, organism-based; settings: in vivo, dose 80 µmol/kg
[23] = species: Mus musculus; test: Neuroprotective activity against MCAO induced C57BL/6J mouse cerebral ischemia model assessed as appearance of high density nissl bodies in hippocampal region; assay type: functional, organism-based
[24] = Drug metabolism in Sprague-Dawley rat assessed as Sodium 2-(1-((3-methylbutanoyl)oxy)pentyl)benzothioate level at 80 umol/kg, iv measured after 1 min by LC-MS/MS analysis; assay type: ADME, organism-based; settings: in vivo, dose 80 µmol/kg
[25] = Drug metabolism in Sprague-Dawley rat assessed as Sodium 2-(1-acetoxypentyl)benzothioate level at 80 umol/kg, iv measured after 1 min by LC-MS/MS analysis; assay type: ADME, organism-based; settings: in vivo, dose 80 µmol/kg

CCCCC(OC(=O)C(C)C)c1ccccc1C(=O)SSCC(NC(C)=O)C(=O)[O-].[Na+] (stereo not given)
half-life at 500 µM [1]: 0.225 h

CCCCC1OC(=S)c2ccccc21 (stereo not given)
Drug metabolism [2]: 1.2 µg/mL
concentration at 1 min ([3]; Sprague-Dawley, 80 umol/kg, read-out: Drug uptake): 7.5 µg/mL

CCCCC(OC(C)=O)c1ccccc1C(=O)[S-].[Na+] (stereo not given)
Activity [4]: Active
Activity [5]: Active
Activity [6]: Active
Activity [7]: Non-Toxic
Activity [8]: 6.3 nmol/mg
Activity [9]: Active
half-life at 500 µM [1]: 23.3 h
Activity [10]: Active
Activity [11]: Active
Activity [12]: Active
Activity [13]: Active
viability at 10 µM [14]: 92.5%
Activity [15]: Active
Activity [16]: Active
Activity [17]: 13.8%
Activity [18]: Active
Drug metabolism [19]: 2.8 µM
Drug metabolism [20]: 23.6 µg/mL
concentration at 1 min [21]: 216 µg/mL
Drug metabolism [22]: 35.5 µg/mL
Activity [23]: Active

CCCCC(OC(=O)C(C)C)c1ccccc1C(=O)[S-].[Na+] (stereo not given)
half-life at 500 µM [1]: 15 h

CCCCC(OC(=O)CC)c1ccccc1C(=O)SSCC(NC(C)=O)C(=O)[O-].[Na+] (stereo not given)
half-life at 500 µM [1]: 0.333 h

CCCCC(OC(=O)CC(C)C)c1ccccc1C(=O)SSCC(NC(C)=O)C(=O)[O-].[Na+] (stereo not given)
Drug metabolism [24]: 201.1 µg/mL
Drug uptake ([3]; iv, 1 min, dose 80 µmol/kg): Not Active
half-life at 500 µM [1]: 0.22 h
Drug metabolism [20]: 41 µg/mL

CCCCC(OC(C)=O)c1ccccc1C(=O)SSCC(NC(C)=O)C(=O)O (stereo not given)
Activity [7]: Non-Toxic
Activity [8]: 9.9 nmol/mg
Drug metabolism [25]: 105.9 µg/mL
half-life at 500 µM [1]: 2.98 h
Activity [12]: inactive
viability at 10 µM [14]: 86.2%
Activity [17]: 20.6%
Drug metabolism [20]: 44.4 µg/mL
concentration at 1 min [21]: 151 µg/mL
Drug metabolism [22]: 34.4 µg/mL

CCCCC(OC(C)=O)c1ccccc1C(=O)O (stereo not given)
Activity [8]: 9.4 nmol/mg
viability at 10 µM [14]: 86.4%
Activity [17]: 20.6%

CCCCC(OC(=O)CC(C)C)c1ccccc1C(=O)[S-].[Na+] (stereo not given)
half-life at 500 µM [1]: 6.42 h
Drug metabolism [19]: 31 µM
